Where two headings read alike, the source gives them in different places.
Target: T1, SMARCA2 (Homo sapiens, UniProt P51531)
T1 construct: endogenous in cells
Assay: SMARCA2 HiBiT degradation assay (cellular)
Type: cell-based
Conditions: for DC50: read-out: HiBit A549 SMARCA2 IP

[1] = A549, Emax = amount of residual protein remaining in the cell following compound treatment
[2] = SMARCA2 HiBiT cells, luminescence readout, 11-point titration from 10 μM, 6 hours or 16 hours
[3] = A549, different HIBIT SMARCA2 clone (footnote a), residual protein remaining
[4] = different HIBIT SMARCA2 clone (footnote a)

T1 sequence (P51531 whole entry): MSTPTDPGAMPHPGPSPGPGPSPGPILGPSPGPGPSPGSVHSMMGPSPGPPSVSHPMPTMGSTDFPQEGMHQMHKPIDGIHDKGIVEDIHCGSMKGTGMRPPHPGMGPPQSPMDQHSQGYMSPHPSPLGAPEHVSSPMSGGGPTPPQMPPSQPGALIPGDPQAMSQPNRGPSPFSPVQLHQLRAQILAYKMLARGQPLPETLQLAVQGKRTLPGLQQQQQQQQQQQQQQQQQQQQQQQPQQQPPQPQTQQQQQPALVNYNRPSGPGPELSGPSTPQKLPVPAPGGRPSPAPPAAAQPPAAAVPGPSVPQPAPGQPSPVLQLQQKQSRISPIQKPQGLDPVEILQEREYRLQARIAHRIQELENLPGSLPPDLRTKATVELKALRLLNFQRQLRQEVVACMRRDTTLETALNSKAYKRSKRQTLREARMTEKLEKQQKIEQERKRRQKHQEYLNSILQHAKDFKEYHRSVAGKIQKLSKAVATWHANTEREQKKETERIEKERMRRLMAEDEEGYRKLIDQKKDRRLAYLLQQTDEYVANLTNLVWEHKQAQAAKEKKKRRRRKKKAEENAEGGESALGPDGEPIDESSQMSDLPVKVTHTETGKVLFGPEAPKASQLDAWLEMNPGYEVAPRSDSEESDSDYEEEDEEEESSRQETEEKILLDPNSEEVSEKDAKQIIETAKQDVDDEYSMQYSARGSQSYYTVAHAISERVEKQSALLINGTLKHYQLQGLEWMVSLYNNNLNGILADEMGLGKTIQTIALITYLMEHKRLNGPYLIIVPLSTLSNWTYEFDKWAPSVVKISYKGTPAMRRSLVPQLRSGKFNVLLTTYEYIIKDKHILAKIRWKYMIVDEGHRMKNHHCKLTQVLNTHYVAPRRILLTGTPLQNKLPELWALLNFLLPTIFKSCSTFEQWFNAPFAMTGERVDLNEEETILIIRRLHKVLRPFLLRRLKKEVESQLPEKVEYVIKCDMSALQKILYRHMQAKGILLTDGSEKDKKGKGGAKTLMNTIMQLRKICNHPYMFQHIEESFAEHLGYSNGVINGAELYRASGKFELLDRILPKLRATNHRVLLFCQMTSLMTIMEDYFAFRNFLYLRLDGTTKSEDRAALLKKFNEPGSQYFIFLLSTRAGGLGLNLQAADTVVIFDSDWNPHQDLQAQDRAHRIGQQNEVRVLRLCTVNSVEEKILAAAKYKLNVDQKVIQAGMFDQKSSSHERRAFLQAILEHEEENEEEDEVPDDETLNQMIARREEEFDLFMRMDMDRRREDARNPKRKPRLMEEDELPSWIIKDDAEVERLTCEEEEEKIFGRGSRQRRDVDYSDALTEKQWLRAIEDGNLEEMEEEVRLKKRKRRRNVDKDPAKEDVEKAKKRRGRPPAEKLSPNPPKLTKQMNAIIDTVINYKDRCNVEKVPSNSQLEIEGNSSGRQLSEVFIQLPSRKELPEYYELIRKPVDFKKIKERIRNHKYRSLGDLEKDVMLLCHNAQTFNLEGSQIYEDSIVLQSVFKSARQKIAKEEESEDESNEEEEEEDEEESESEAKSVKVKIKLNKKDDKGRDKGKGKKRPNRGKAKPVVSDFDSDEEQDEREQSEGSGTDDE

SMILES	Emax [1] [%]	DC50 [2] [nM]	Emax [3] [%]	DC50 [4] [nM]
Cc1ncsc1-c1ccc([C@H](C)NC(=O)[C@@H]2C[C@@H](O)CN2C(=O)[C@@H](NC(=O)CCCCCCCCCCC(=O)N2CCN(c3cccc(N4CCCC(Oc5cc(-c6ccccc6O)nnc5N)C4)c3)CC2)C(C)(C)C)cc1 (mixture of isomers) [Example 92, rac-(2S,4R)-4-hydroxy-1-[rac-(2S)-2-[[12-[4-[3-[3-[3-amino-6-(2-hydroxyphenyl)pyridazin-4-yl]oxy-1-piperidyl]phenyl]piperazin-1-yl]-12-oxo-dodecanoyl]amino]-3,3-dimethyl-butanoyl]-N-[rac-(1S)-1-[4-(4-methylthiazol-5-yl)phenyl]ethyl]pyrrolidine-2-carboxamide]	45	560	–	–
Cc1ncsc1-c1ccc([C@H](C)NC(=O)[C@@H]2C[C@@H](O)CN2C(=O)[C@@H](NC(=O)CCCCCCCCCCCCC(=O)N2CCN(c3cccc(N4CCCC(Oc5cc(-c6ccccc6O)nnc5N)C4)c3)CC2)C(C)(C)C)cc1 (mixture of isomers) [Example 93, rac-(2S,4R)-4-hydroxy-1-[rac-(2S)-2-[[14-[4-[3-[3-[3-amino-6-(2-hydroxyphenyl)pyridazin-4-yl]oxy-1-piperidyl]phenyl]piperazin-1-yl]-14-oxo-tetradecanoyl]amino]-3,3-dimethyl-butanoyl]-N-[rac-(1S)-1-[4-(4-methylthiazol-5-yl)phenyl]ethyl]pyrrolidine-2-carboxamide]	55	579	–	–
Cc1ncsc1-c1ccc(CNC(=O)[C@@H]2C[C@@H](O)CN2C(=O)[C@@H](NC(=O)CCCCCCCCC(=O)N2CCC(CNC(=O)C3CN(c4cc(-c5ccccc5O)nnc4N)CCN3c3ccccc3)CC2)C(C)(C)C)cc1 (mixture of isomers) [Example 97, 4-[3-amino-6-(2-hydroxyphenyl)pyridazin-4-yl]-N-[[1-[10-oxo-10-[[rac-(1S)-2,2-dimethyl-1-[rac-(2S,4R)-4-hydroxy-2-[[4-(4-methylthiazol-5-yl)phenyl]methylcarbamoyl]pyrrolidine-1-carbonyl]propyl]amino]decanoyl]-4-piperidyl]methyl]-1-phenyl-piperazine-2-carboxamide]	40	1150	–	–
Cc1ncsc1-c1ccc(CNC(=O)[C@@H]2C[C@@H](O)CN2C(=O)[C@@H](NC(=O)CCCCCCCCC(=O)N(C)CCNC(=O)C2CN(c3cc(-c4ccccc4O)nnc3N)CCN2c2ccccc2)C(C)(C)C)cc1 (mixture of isomers) [Example 98, N′-[2-[[4-[3-amino-6-(2-hydroxyphenyl)pyridazin-4-yl]-1-phenyl-piperazine-2-carbonyl]amino]ethyl]-N′-methyl-N-[rac-(1S)-2,2-dimethyl-1-[rac-(2S,4R)-4-hydroxy-2-[[4-(4-methylthiazol-5-yl)phenyl]methylcarbamoyl]pyrrolidine-1-carbonyl]propyl]decanediamide]	28	1650	–	–

Now from value to molecule:

Emax [1] [%]	DC50 [2] [nM]	Emax [3] [%]	DC50 [4] [nM]	SMILES
–	–	7.9	68	Cc1ncsc1-c1ccc(CNC(=O)[C@@H]2C[C@@H](O)CN2C(=O)[C@@H](NC(=O)CCCCCCCCC(=O)N2CCN(c3ccc(N4CCCC(Oc5cc(-c6cc(F)ccc6O)nnc5N)C4)cc3)CC2)C(C)(C)C)cc1 (mixture of isomers) [Example 108, rac-(2S,4R)-4-hydroxy-N-[[4-(4-methylthiazol-5-yl)phenyl]methyl]-1-[rac-(2S)-2-[[10-[4-[4-[3-[3-amino-6-(5-fluoro-2-hydroxy-phenyl)pyridazin-4-yl]oxy-1-piperidyl]phenyl]piperazin-1-yl]-10-oxo-decanoyl]amino]-3,3-dimethyl-butanoyl]pyrrolidine-2-carboxamide]
–	–	23	285	Cc1ncsc1-c1ccc(CNC(=O)[C@@H]2C[C@@H](O)CN2C(=O)[C@@H](NC(=O)CCCCCC(=O)N2CCN(c3ccc(N4CCCC(Oc5cc(-c6cc(F)ccc6O)nnc5N)C4)cc3)CC2)C(C)(C)C)cc1 (mixture of isomers) [Example 109, rac-(2S,4R)-4-hydroxy-N-[[4-(4-methylthiazol-5-yl)phenyl]methyl]-1-[rac-(2S)-2-[[7-[4-[4-[3-[3-amino-6-(5-fluoro-2-hydroxy-phenyl)pyridazin-4-yl]oxy-1-piperidyl]phenyl]piperazin-1-yl]-7-oxo-heptanoyl]amino]-3,3-dimethyl-butanoyl]pyrrolidine-2-carboxamide]
